Columns and labels:
memapsin 2 = memapsin 2 (Homo sapiens, UniProt P56817); assay: Inhibition of memapsin 2 beta-secretase activity toward fluorogenic substrate FS-2; format: biochemical; conditions: pH 4, 37° C., 20 minutes pre-incubation, read-out: M2 Ki
Summary of the method: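 Enzyme pre-incubated with compound 20 min at pH 4, 37 °C, then fluorogenic substrate FS-2 added. Inhibition derived from rate of fluorescence increase from peptide hydrolysis.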

Cathepsin D = Cathepsin D (Homo sapiens, UniProt P07339); assay: Inhibition of cathepsin D activity (substrate peptide hydrolysis, MALDI-TOF); format: biochemical; conditions: pH 4.1, 37 degrees C., read-out: Cath D Ki
Chain of Cathepsin D (P07339 65-412, species assumed): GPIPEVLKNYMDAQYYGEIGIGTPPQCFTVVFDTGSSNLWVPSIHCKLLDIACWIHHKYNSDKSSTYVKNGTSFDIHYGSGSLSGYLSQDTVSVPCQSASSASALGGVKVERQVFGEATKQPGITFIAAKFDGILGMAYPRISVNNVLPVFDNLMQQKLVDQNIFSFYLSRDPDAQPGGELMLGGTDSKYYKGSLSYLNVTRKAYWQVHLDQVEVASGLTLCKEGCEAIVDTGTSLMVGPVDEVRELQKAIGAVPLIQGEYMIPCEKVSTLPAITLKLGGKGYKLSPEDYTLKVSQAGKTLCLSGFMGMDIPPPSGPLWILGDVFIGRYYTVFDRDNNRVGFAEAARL

memapsin 1 = molecular target: T1, memapsin 1 (Homo sapiens, UniProt Q9Y5Z0); assay: Inhibition of memapsin 1 beta-secretase activity (substrate peptide hydrolysis, MALDI-TOF); format: biochemical; conditions: pH 4.1, 37 degrees C., read-out: M1 Ki
T1 sequence (Q9Y5Z0 63-518): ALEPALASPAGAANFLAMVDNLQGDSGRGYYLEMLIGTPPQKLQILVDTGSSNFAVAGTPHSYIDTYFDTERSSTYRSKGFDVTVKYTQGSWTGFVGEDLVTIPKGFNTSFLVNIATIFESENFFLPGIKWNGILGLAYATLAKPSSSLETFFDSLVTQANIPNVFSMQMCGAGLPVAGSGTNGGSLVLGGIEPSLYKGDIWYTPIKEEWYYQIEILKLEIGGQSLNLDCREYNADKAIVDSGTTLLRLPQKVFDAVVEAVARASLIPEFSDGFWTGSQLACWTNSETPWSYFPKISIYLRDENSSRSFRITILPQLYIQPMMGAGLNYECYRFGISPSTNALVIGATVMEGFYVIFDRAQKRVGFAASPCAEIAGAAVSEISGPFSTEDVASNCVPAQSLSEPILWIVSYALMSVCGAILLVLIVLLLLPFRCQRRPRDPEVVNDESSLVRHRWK

Aβ production = assay: Cellular Aβ IC50 determination (Aβ40 sandwich ELISA); format: cell-based; conditions: Cricetulus griseus, Chinese hamster ovary cells over-expressing human APP695 with London and Swedish mutations, 24 h
Summary of the method: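 CHO cells over-expressing human APP695 (London and Swedish mutations) were treated 48 h after seeding with serially diluted compound, top final concentration near 4 μM (0.4% DMSO), for 24 h at 37 °C, 5% CO2. Aβ40 in medium was measured by sandwich ELISA; values relative to control were fit to a 4-parameter IC50 model.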

Chain of memapsin 2 (P56817 46-501): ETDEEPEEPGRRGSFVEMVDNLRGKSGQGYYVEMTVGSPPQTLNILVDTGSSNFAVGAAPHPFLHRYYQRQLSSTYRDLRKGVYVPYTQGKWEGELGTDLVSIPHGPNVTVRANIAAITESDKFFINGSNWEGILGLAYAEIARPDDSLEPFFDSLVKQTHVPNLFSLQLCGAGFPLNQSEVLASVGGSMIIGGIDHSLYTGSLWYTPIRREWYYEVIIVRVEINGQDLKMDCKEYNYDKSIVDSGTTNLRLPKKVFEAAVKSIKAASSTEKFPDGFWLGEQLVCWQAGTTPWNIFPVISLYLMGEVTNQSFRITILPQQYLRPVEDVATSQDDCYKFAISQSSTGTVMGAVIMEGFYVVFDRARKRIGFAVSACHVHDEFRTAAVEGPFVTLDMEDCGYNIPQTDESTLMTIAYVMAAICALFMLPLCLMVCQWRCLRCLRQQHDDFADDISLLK

Ki (memapsin 2) | Ki (Cathepsin D) | Ki (memapsin 1) | IC50 (Aβ production) | SMILES
405 to 2000 nM | < 405 nM | < 405 nM | > 20000 nM | CCN(Cc1ccncc1)C(=O)c1cc(C)cc(C(=O)NC(CC(C)C)C(O)CC(C)C(=O)NC(C(=O)NCC(C)C)C(C)C)c1 (stereo not shown) [N1-ethyl-N3-(5-hydroxy-8-(1-(isobutylamino)-3-methyl-1-oxobutan-2-ylamino)-2,7-dimethyl-8-oxooctan-4-yl)-5-methyl-N1-(pyridin-4-ylmethyl)isophthalamide]
< 405 nM | < 405 nM | < 405 nM | 10000 to 20000 nM | CC(C)CNC(=O)C(NC(=O)C(C)CC(O)C(CC(C)C)NC(=O)c1cc(C(=O)N(C)Cc2ccccc2)cc(N(C)S(C)(=O)=O)c1)C(C)C (stereo not shown) [N1-benzyl-N3-(5-hydroxy-8-(1-(isobutylamino)-3-methyl-1-oxobutan-2-ylamino)-2,7-dimethyl-8-oxooctan-4-yl)-N1-methyl-5-(N-methylmethylsulfonamido)isophthalamide]
405 to 2000 nM | < 405 nM | < 405 nM | 10000 to 20000 nM | CCCN(CCC)C(=O)c1cccc(C(=O)NC(Cc2ccc(OC)c(Cl)c2)C(O)CC(C)C(=O)NC(C(=O)NCC(C)C)C(C)C)c1 (stereo not shown) [N1-(1-(3-chloro-4-methoxyphenyl)-3-hydroxy-6-(1-(isobutylamino)-3-methyl-1-oxobutan-2-ylamino)-5-methyl-6-oxohexan-2-yl)-N3,N3-dipropylisophthalamide]
< 405 nM | < 405 nM | < 405 nM | < 5000 nM | Cc1cc(C(=O)NC(CC(C)C)C(O)CC(C)C(=O)NC(C(=O)NCC(C)C)C(C)C)cc(C(=O)N(C)Cc2nc(C)cs2)c1 (stereo not shown) [N1-(5-hydroxy-8-(1-(isobutylamino)-3-methyl-1-oxobutan-2-ylamino)-2,7-dimethyl-8-oxooctan-4-yl)-N3,5-dimethyl-N3-((4-methylthiazol-2-yl)methyl)isophthalamide]
< 405 nM | 405 to 2000 nM | 405 to 2000 nM | < 5000 nM | CC(C)CC(NC(=O)c1cc(C(=O)NC(C)c2ccccc2)cc(N(C)S(C)(=O)=O)c1)C(O)CC(C)C(=O)NC(C(=O)NCC1CCCN1C)C(C)C (stereo not shown) [N1-(5-hydroxy-2,7-dimethyl-8-(3-methyl-1-((1-methylpyrrolidin-2-yl)methylamino)-1-oxobutan-2-ylamino)-8-oxooctan-4-yl)-5-(N-methylmethylsulfonamido)-N3-(1-phenylethyl)isophthalamide]
< 405 nM | 405 to 2000 nM | < 405 nM | < 5000 nM | CC(C)CC(NC(=O)c1cc(C(=O)NC(C)c2ccccc2)cc(N(C)S(C)(=O)=O)c1)C(O)CC(C)C(=O)NC(C(=O)NCc1cccnc1)C(C)C (stereo not shown) [N1-(5-hydroxy-2,7-dimethyl-8-(3-methyl-1-oxo-1-(pyridin-3-ylmethylamino)butan-2-ylamino)-8-oxooctan-4-yl)-5-(N-methylmethylsulfonamido)-N3-(1-phenylethyl)isophthalamide]

Second part, the molecule before the results:

SMILES | Ki (memapsin 2) | Ki (Cathepsin D) | Ki (memapsin 1) | IC50 (Aβ production)
CC(C)CC(NC(=O)c1cc(C(=O)NC(C)c2ccccc2)cc(N(C)C(=O)OC2CCOC2)c1)C(O)CC(C)C(=O)NC(C(=O)NC(C)C)C(C)C (stereo not shown) [tetrahydrofuran-3-yl 3-(5-hydroxy-8-(1-(isopropylamino)-3-methyl-1-oxobutan-2-ylamino)-2,7-dimethyl-8-oxooctan-4-ylcarbamoyl)-5-(1-phenylethylcarbamoyl)phenyl(methyl)carbamate] | 405 to 2000 nM | < 405 nM | < 405 nM | > 20000 nM
CCCN(CCC)C(=O)c1cccc(C(=O)NC(Cc2cc(F)cc(F)c2)C(O)CC(C)C(=O)NCC(C)C)c1 (stereo not shown) [N1-(1-(3,5-difluorophenyl)-3-hydroxy-6-(isobutylamino)-5-methyl-6-oxohexan-2-yl)-N3,N3-dipropylisophthalamide] | < 405 nM | < 405 nM | < 405 nM | < 5000 nM
CCN1CCCC1CNC(=O)C(NC(=O)C(C)CC(O)C(CC(C)C)NC(=O)c1cc(C(=O)NC(C)c2ccccc2)cc(N(C)S(C)(=O)=O)c1)C(C)C (stereo not shown) [N1-(8-(1-((1-ethylpyrrolidin-2-yl)methylamino)-3-methyl-1-oxobutan-2-ylamino)-5-hydroxy-2,7-dimethyl-8-oxooctan-4-yl)-5-(N-methylmethylsulfonamido)-N3-(1-phenylethyl)isophthalamide] | < 405 nM | < 405 nM | < 405 nM | < 5000 nM
CC(=O)Nc1cc(C(=O)NC(C)c2ccccc2)cc(C(=O)NC(CC(C)C)C(O)CC(C)C(=O)NC(C(=O)NCC(C)C)C(C)C)c1 (stereo not shown) [5-acetamido-N1-(5-hydroxy-8-(1-(isobutylamino)-3-methyl-1-oxobutan-2-ylamino)-2,7-dimethyl-8-oxooctan-4-yl)-N3-(1-phenylethyl)isophthalamide] | < 405 nM | < 405 nM | < 405 nM | 5000 to 10000 nM
CC(C)CC(NC(=O)c1cc(C(=O)NC(C)c2ccccc2)cc(N(C)S(C)(=O)=O)c1)C(O)CC(C)C(=O)NCc1ccccc1 (stereo not shown) [N1-(8-(benzylamino)-5-hydroxy-2,7-dimethyl-8-oxooctan-4-yl)-5-(N-methylmethylsulfonamido)-N3-(1-phenylethyl)isophthalamide] | 2000 to 5000 nM | > 5000 nM | 2000 to 5000 nM | > 20000 nM
CC(C)CNC(=O)C(NC(=O)C(C)CC(O)C(CC(C)C)NC(=O)c1cncc(C(=O)N(C)Cc2ccccn2)c1)C(C)C (stereo not shown) [N3-(5-hydroxy-8-(1-(isobutylamino)-3-methyl-1-oxobutan-2-ylamino)-2,7-dimethyl-8-oxooctan-4-yl)-N5-methyl-N5-(pyridin-2-ylmethyl)pyridine-3,5-dicarboxamide] | < 405 nM | < 405 nM | < 405 nM | > 20000 nM
CCCN(Cc1nc(C)cs1)C(=O)c1cccc(C(=O)NC(CC(C)C)C(O)CC(C)C(=O)NC(C(=O)NCC(C)C)C(C)C)c1 (stereo not shown) [N1-(5-hydroxy-8-(1-(isobutylamino)-3-methyl-1-oxobutan-2-ylamino)-2,7-dimethyl-8-oxooctan-4-yl)-N3-((4-methylthiazol-2-yl)methyl)-N3-propylisophthalamide] | < 405 nM | < 405 nM | 405 to 2000 nM | 10000 to 20000 nM
CCc1csc(CN(C)C(=O)c2cccc(C(=O)NC(CC(C)C)C(O)CC(C)C(=O)NC(C(=O)NCC(C)C)C(C)C)c2)n1 (stereo not shown) [N1-((4-ethylthiazol-2-yl)methyl)-N3-(5-hydroxy-8-(1-(isobutylamino)-3-methyl-1-oxobutan-2-ylamino)-2,7-dimethyl-8-oxooctan-4-yl)-N1-methylisophthalamide] | < 405 nM | > 5000 nM | < 405 nM | > 20000 nM
CCCN(CCC)C(=O)c1cccc(C(=O)NC(Cc2ccc(OC)cc2)C(O)CC(C)C(=O)NC(C(=O)NCC(C)C)C(C)C)c1 (stereo not shown) [N1-(3-hydroxy-6-(1-(isobutylamino)-3-methyl-1-oxobutan-2-ylamino)-1-(4-methoxyphenyl)-5-methyl-6-oxohexan-2-yl)-N3,N3-dipropylisophthalamide] | < 405 nM | < 405 nM | < 405 nM | 5000 to 10000 nM
CC(C)CNC(=O)C(NC(=O)C(C)CC(O)C(CC(C)C)NC(=O)c1cccc(C(=O)N(C)Cc2ccco2)c1)C(C)C (stereo not shown) [N1-(furan-2-ylmethyl)-N3-(5-hydroxy-8-(1-(isobutylamino)-3-methyl-1-oxobutan-2-ylamino)-2,7-dimethyl-8-oxooctan-4-yl)-N1-methylisophthalamide] | < 405 nM | < 405 nM | 405 to 2000 nM | > 20000 nM
